According to PMC3648604 (Antiviral research, 2013):

Molecular target: NA activity of the H5N1 influenza viruses (Influenza A virus (H5N1), UniProt Q6DPL2)
Assay type: biochemical, human and avian HP H5N1 influenza viruses

NA activity of the H5N1 influenza viruses, sequence (Q6DPL2 whole entry, looked up): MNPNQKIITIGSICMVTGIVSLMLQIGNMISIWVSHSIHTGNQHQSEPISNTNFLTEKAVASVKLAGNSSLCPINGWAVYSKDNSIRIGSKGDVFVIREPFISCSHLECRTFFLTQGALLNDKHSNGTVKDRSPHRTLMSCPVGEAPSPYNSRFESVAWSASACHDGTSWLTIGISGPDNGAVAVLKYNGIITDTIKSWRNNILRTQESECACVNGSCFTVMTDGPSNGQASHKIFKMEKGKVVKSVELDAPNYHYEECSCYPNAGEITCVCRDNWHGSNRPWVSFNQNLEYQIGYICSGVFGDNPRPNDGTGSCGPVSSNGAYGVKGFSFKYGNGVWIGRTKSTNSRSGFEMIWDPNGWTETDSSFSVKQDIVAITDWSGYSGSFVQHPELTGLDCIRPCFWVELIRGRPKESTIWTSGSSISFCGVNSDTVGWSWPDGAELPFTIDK

CC(=O)N[C@H]1[C@H]([C@H](O)[C@H](O)CO)OC(C(=O)O)=C[C@@H]1N=C(N)N [Zanamivir, 4-guanidino-Neu5Ac2en]
susceptibility in phenotypic fluorescence-based assay: fully susceptible
